Test results as given in patent publication US9221827B2, “Antimicrobial compounds and methods of making and using the same” (Melinta Therapeutics, Inc., priority 2011, dated 2015).

Tested on: Escherichia coli strain ATCC25922
Experiment: standard microdilution assay to determine minimum inhibitory concentrations (MICs)
Type: cell-based
Procedure, shortened: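 Broth microdilution per CLSI (M7-A8/M100-S20), 100 μl final volume, with reference-strain quality control; MIC is the lowest inhibitory concentration. Scored "+"/"−" against a 16 micrograms/ml cutoff, "N/A" where unavailable.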

[1] = Escherichia coli strain ATCC25922, standard microdilution assay
[2] = Escherichia coli strain ATCC25922, microdilution

Compound	E. coli ATCC25922 MIC [1]	E. coli ATCC25922 MIC [2]
C[C@H](N)CCCc1cc(OC(F)(F)F)cc(-c2cc3cn(-c4ccc(CN)cc4)c(=O)nc3[nH]2)c1 [Compound 355]	− (a “−” indicates that the compound has an MIC value greater than 16 micrograms/ml)	–
N=C(N)NCCCNCc1c(F)cc(-n2cc3cc(-c4cc(CCCCN)cc(OC(F)(F)F)c4)[nH]c3nc2=O)cc1F [Compound 52]	–	+ (a “+” indicates that the compound has an MIC value of 16 micrograms/ml or less)
CC(CCN)Cc1cc(F)c(Cl)c(-c2cc3cn(-c4ccc(CNCCCNC(=N)N)cc4)c(=O)nc3[nH]2)c1 (stereo not shown) [Compound 128]	–	+ (a “+” indicates that the compound has an MIC value of 16 micrograms/ml or less)
CC(C)(N)CCCc1cc(Cl)c(F)c(-c2cc3cn(-c4ccc(CN)cc4)c(=O)nc3[nH]2)c1 [Compound 372]	− (a “−” indicates that the compound has an MIC value greater than 16 micrograms/ml)	–
CC(N)CCCc1cccc(-c2cc3cn(-c4ccc(CNCCCNC(=N)N)cc4)c(=O)nc3[nH]2)n1 (stereo not shown) [Compound 370]	+ (a “+” indicates that the compound has an MIC value of 16 micrograms/ml or less)	–
NCCCCc1cc(SC(F)(F)F)c(Cl)c(-c2cc3cn(-c4ccc(CNCCCN=C(N)N)cc4)c(=O)nc3[nH]2)c1 [Compound 92]	–	+ (a “+” indicates that the compound has an MIC value of 16 micrograms/ml or less)
CC(NCCCNC(=N)N)c1ccc(-n2cc3cc(-c4cc(CCC5CC(N)C5)cc(Cl)c4F)[nH]c3nc2=O)cc1 (stereo not shown) [Compound 384]	+ (a “+” indicates that the compound has an MIC value of 16 micrograms/ml or less)	–
CC(N)CCCc1cc(CCl)cc(-c2cc3cn(-c4ccc(CNCCCNC(=N)N)cc4)c(=O)nc3[nH]2)c1 (stereo not shown) [Compound 266]	–	+ (a “+” indicates that the compound has an MIC value of 16 micrograms/ml or less)
N=C(N)NCCCNCc1ccc(-n2cc3cc(-c4cc(CCCCN)cc(CO)c4C(F)(F)F)[nH]c3nc2=O)cc1 [Compound 246]	–	+ (a “+” indicates that the compound has an MIC value of 16 micrograms/ml or less)
C[C@H](N)CCCc1cc(F)c(F)c(-c2cc3cn(-c4ccc([C@H](C)NCCCNC(=N)N)cc4)c(=O)nc3[nH]2)c1 [Compound 462]	+ (a “+” indicates that the compound has an MIC value of 16 micrograms/ml or less)	–
N=C(N)NCCCNCc1ccc(-n2cc3cc(-c4cc(CCCCN)cc(C5CCC5)c4)[nH]c3nc2=O)cc1 [Compound 40]	–	+ (a “+” indicates that the compound has an MIC value of 16 micrograms/ml or less)
CC(CN)CN1CC(NC(=O)Nc2nc(=O)c(-c3ccc(CNCCCNC(=N)N)cc3)c[nH]2)CC1COCc1c(Cl)cccc1Cl (stereo not shown) [Compound 150]	–	− (a “−” indicates that the compound has an MIC value greater than 16 micrograms/ml)
CC(CCCN)c1cc(OC(F)(F)F)cc(-c2cc3cn(-c4ccc(CNCCCNC(=N)N)cc4)c(=O)nc3[nH]2)c1 (stereo not shown) [Compound 94]	–	+ (a “+” indicates that the compound has an MIC value of 16 micrograms/ml or less)
CSc1cc(CCCCN)cc(-c2cc3cn(-c4ccc(CNCCCNC(=N)N)cc4)c(=O)nc3[nH]2)c1C(F)(F)F [Compound 262]	–	+ (a “+” indicates that the compound has an MIC value of 16 micrograms/ml or less)
N=C(N)NCCCNCc1ccc(-n2cc3cc(-c4cc(CCC5(CN)CC5)cc(OC(F)(F)F)c4)[nH]c3nc2=O)cc1 [Compound 137]	–	+ (a “+” indicates that the compound has an MIC value of 16 micrograms/ml or less)
C[C@@H](CN)OCc1cc(-c2cc3cn(-c4ccc(CNCCCNC(=N)N)cc4)c(=O)nc3[nH]2)cc(C(F)(F)F)c1 [Compound 314]	–	+ (a “+” indicates that the compound has an MIC value of 16 micrograms/ml or less)
CCc1cc(CCCCN)cc(-c2cc3cn(-c4ccc(CNCCCNC(=N)N)cc4)c(=O)nc3[nH]2)c1 [Compound 123]	–	+ (a “+” indicates that the compound has an MIC value of 16 micrograms/ml or less)
N=C(N)NCCCNCc1ccc(-n2cc3cc(-c4cc(CCCCN)cc(C5CNC5)c4)[nH]c3nc2=O)cc1 [Compound 4]	–	+ (a “+” indicates that the compound has an MIC value of 16 micrograms/ml or less)
C[C@H](NCCCNC(=N)N)c1ccc(-n2cc3cc(-c4cc(CCC5COCC5N)cc(OC(F)(F)F)c4)[nH]c3nc2=O)cc1 (stereo partly shown) [Compound 477]	–	+ (a “+” indicates that the compound has an MIC value of 16 micrograms/ml or less)
CCc1cc(CCC[C@H](C)N)nc(-c2cc3cn(-c4ccc(CNCCCNC(=N)N)cc4)c(=O)nc3[nH]2)c1 [Compound 387]	+ (a “+” indicates that the compound has an MIC value of 16 micrograms/ml or less)	–
CC(N)CCCc1cccc(-c2cc3cn(-c4ccc(C(C)NCCCNC(=N)N)cc4)c(=O)nc3[nH]2)n1 (stereo not shown) [Compound 369]	+ (a “+” indicates that the compound has an MIC value of 16 micrograms/ml or less)	–
C[C@H](N)CCCc1cc(-c2cc3cn(-c4ccc([C@H](C)NCCCNC(=N)N)cc4)c(=O)nc3[nH]2)cc2c1COC2 [Compound 443]	+ (a “+” indicates that the compound has an MIC value of 16 micrograms/ml or less)	–

Compound	E. coli ATCC25922 MIC [1]	E. coli ATCC25922 MIC [2]
CC(N)CCCc1cc(-c2cc3cn(-c4ccc(C(C)NCCCNC(=N)N)cc4)c(=O)nc3[nH]2)cc(C(O)C(F)(F)F)c1 (stereo not shown) [Compound 504]	–	+ (a “+” indicates that the compound has an MIC value of 16 micrograms/ml or less)
NCCCCc1c(F)ccc(-c2cc3cn(-c4ccc(CNCCCN=C(N)N)cc4)c(=O)nc3[nH]2)c1F [Compound 84]	–	+ (a “+” indicates that the compound has an MIC value of 16 micrograms/ml or less)
CCc1cc(CCCCN)cc(-c2cc3cn(-c4ccc(CNCCCNC(=N)N)cc4)c(=O)nc3[nH]2)c1Cl [Compound 217]	–	+ (a “+” indicates that the compound has an MIC value of 16 micrograms/ml or less)
CC(C)Cc1cc(CCCC(C)N)cc(-c2cc3cn(-c4ccc(C(C)NCCCNC(=N)N)cc4)c(=O)nc3[nH]2)c1 (stereo not shown) [Compound 385]	+ (a “+” indicates that the compound has an MIC value of 16 micrograms/ml or less)	–
CC(CCN)Cc1cc(OC(F)(F)F)cc(-c2cc3cn(-c4ccc(CNCCCNC(=N)N)cc4)c(=O)nc3[nH]2)c1 (stereo not shown) [Compound 93]	–	+ (a “+” indicates that the compound has an MIC value of 16 micrograms/ml or less)
N=C(N)NCCCNCc1ccc(-n2cc3cc(-c4cc(CCCCN)cc(C5CC5)c4)[nH]c3nc2=O)cc1 [Compound 18]	–	+ (a “+” indicates that the compound has an MIC value of 16 micrograms/ml or less)
CC(N)COCc1cc(Cl)c(F)c(-c2cc3cn(-c4ccc(CNCCCNC(=N)N)cc4)c(=O)nc3[nH]2)c1 (stereo not shown) [Compound 375]	+ (a “+” indicates that the compound has an MIC value of 16 micrograms/ml or less)	–
CC(N)CCCc1cc(-c2cc3cn(-c4ccc(C(NCCCNC(=N)N)C(=O)O)cc4)c(=O)nc3[nH]2)cc(C(F)(F)F)c1 (stereo not shown) [Compound 497]	–	− (a “−” indicates that the compound has an MIC value greater than 16 micrograms/ml)
C[C@H](N)CCCc1cc(OC(F)(F)F)c(F)c(-c2cc3cn(-c4ccc([C@H](C)NCCCNC(=N)N)cc4)c(=O)nc3[nH]2)c1 [Compound 316]	–	+ (a “+” indicates that the compound has an MIC value of 16 micrograms/ml or less)
CNC(C)CCCc1cc(Cl)c(F)c(-c2cc3cn(-c4ccc(CNCCCNC(=N)N)cc4)c(=O)nc3[nH]2)c1 (stereo not shown) [Compound 292]	–	+ (a “+” indicates that the compound has an MIC value of 16 micrograms/ml or less)
CC(C)(N)CCCc1cc(Cl)c(F)c(-c2cc3cn(-c4ccc(CNCCCNC(=N)N)cc4)c(=O)nc3[nH]2)c1 [Compound 295]	–	+ (a “+” indicates that the compound has an MIC value of 16 micrograms/ml or less)
CC(N)CCCc1cc(-c2cc3cn(-c4ccc(CN5CCCCC5=N)cc4)c(=O)nc3[nH]2)cc(C(F)(F)F)c1 (stereo not shown) [Compound 366]	− (a “−” indicates that the compound has an MIC value greater than 16 micrograms/ml)	–
CC(C)(N)CCc1cc(OC(F)(F)F)cc(-c2cc3cn(-c4ccc(CNCCCNC(=N)N)cc4)c(=O)nc3[nH]2)c1 [Compound 255]	–	+ (a “+” indicates that the compound has an MIC value of 16 micrograms/ml or less)
NCCC[C@H](O)c1cc(OC(F)(F)F)cc(-c2cc3cn(-c4ccc(CNCCCN=C(N)N)cc4)c(=O)nc3[nH]2)c1 [Compound 75]	–	+ (a “+” indicates that the compound has an MIC value of 16 micrograms/ml or less)
CC(CCN)Cc1cc(Cl)c(F)c(-c2cc3cn(-c4ccc(CNCCCNC(=N)N)cc4)c(=O)nc3[nH]2)c1 (stereo not shown) [Compound 132]	–	+ (a “+” indicates that the compound has an MIC value of 16 micrograms/ml or less)
CCC[C@H](NCCCNC(=N)N)c1ccc(-n2cc3cc(-c4cc(CCC[C@H](C)N)cc(SC(F)(F)F)c4)[nH]c3nc2=O)cc1 [Compound 416]	+ (a “+” indicates that the compound has an MIC value of 16 micrograms/ml or less)	–
C[C@H](N)CCCc1cc(-c2cc3cn(-c4ccc(CNCCCNC(=N)N)cc4)c(=O)nc3[nH]2)cc2c1COC2 [Compound 444]	+ (a “+” indicates that the compound has an MIC value of 16 micrograms/ml or less)	–
N=C(N)NCCCNCc1ccc(-n2cc3cc(-c4cc(CCCCN)cc(-n5ccnn5)c4)[nH]c3nc2=O)cc1 [Compound 55]	–	+ (a “+” indicates that the compound has an MIC value of 16 micrograms/ml or less)
Cc1cc(CCCCN)cc(-c2cc3cn(-c4ccc(CNCCCNC(=N)N)cc4)c(=O)nc3[nH]2)c1C(F)(F)F [Compound 222]	–	+ (a “+” indicates that the compound has an MIC value of 16 micrograms/ml or less)
C[C@H](N)CCCc1cc(C(F)(F)F)cc(-c2cc3cn(-c4ccc(CNCCCNC(=N)N)cc4)c(=O)nc3[nH]2)n1 [Compound 389]	+ (a “+” indicates that the compound has an MIC value of 16 micrograms/ml or less)	–
CS(=O)(=O)CCc1cc(CCCCN)cc(-c2cc3cn(-c4ccc(CNCCCNC(=N)N)cc4)c(=O)nc3[nH]2)c1 [Compound 22]	–	+ (a “+” indicates that the compound has an MIC value of 16 micrograms/ml or less)
